From ChEMBL document CHEMBL1201862, “PubChem BioAssay data set” (2004)
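Briefly, cells in 96-well plates were exposed to five compound concentrations for 48 h, and endpoints were estimated by linear interpolation. Here, GI50 denotes the concentration required for 50% inhibition of growth.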 Activity calls are given as the source filed them. Cut-off read from the data, not from the text of the source: active = GI50 up to about 1.1 µM and inactive = higher.

Key:
Assay in all cases: DTP human tumour cell line panel, 48 h
NCI-H226 = tested on: NCI-H226
COLO 205 = tested on: COLO 205
SNB-75 = tested on: SNB-75
ACHN = tested on: ACHN
HOP-92 = tested on: HOP-92
NCI-H460 = tested on: NCI-H460
DLD-1 = tested on: DLD-1
UO-31 = tested on: UO-31
OVCAR-5 = tested on: OVCAR-5
SR = tested on: SR
NCI-H23 = tested on: NCI-H23
UACC-257 = tested on: UACC-257
HCC 2998 = tested on: HCC 2998
OVCAR-3 = tested on: OVCAR-3
EKVX = tested on: EKVX
786-0 = tested on: 786-0
LOX IMVI = tested on: LOX IMVI
M19-MEL = tested on: M19-MEL
A498 = tested on: A498
SF-539 = tested on: SF-539
UACC-62 = tested on: UACC-62
CAKI-1 = tested on: CAKI-1
IGROV-1 = tested on: IGROV-1
RPMI-8226 = tested on: RPMI-8226
SK-MEL-2 = tested on: SK-MEL-2
XF498 = tested on: XF498
SK-OV-3 = tested on: SK-OV-3
K562 = tested on: K562
HL-60 = tested on: HL-60
SNB-19 = tested on: SNB-19
SK-MEL-5 = tested on: SK-MEL-5
RXF 631 = tested on: RXF 631
HCT-116 = tested on: HCT-116
U-251 = tested on: U-251
OVCAR-4 = tested on: OVCAR-4
LXFL 529 = tested on: LXFL 529
M14 = tested on: M14
TK-10 = tested on: TK-10
SW-620 = tested on: SW-620
DMS-114 = tested on: DMS-114
MOLT-4 = tested on: MOLT-4
OVCAR-8 = tested on: OVCAR-8
Malme-3M = tested on: Malme-3M
HOP-62 = tested on: HOP-62
RXF 393 = tested on: RXF 393
HOP-18 = tested on: HOP-18
SF-295 = tested on: SF-295
HCT-15 = tested on: HCT-15
NCI-H522 = tested on: NCI-H522
SK-MEL-28 = tested on: SK-MEL-28
A549 = tested on: A549
KM-20L2 = tested on: KM-20L2
SF-268 = tested on: SF-268
SNB-78 = tested on: SNB-78
KM12 = tested on: KM12
CCRF-CEM = tested on: CCRF-CEM
SN12C = tested on: SN12C
HT-29 = tested on: HT-29
DMS-273 = tested on: DMS-273

COC(=O)C(=O)C(C(=O)OC)C(=O)C(=O)Nc1c(C)cccc1C (stereo unspecified)
GI50 (NCI-H226): > 100 µM (inactive)
GI50 (COLO 205): > 100 µM (inactive)
GI50 (SNB-75): > 100 µM (inactive)
GI50 (ACHN): > 100 µM (inactive)
GI50 (HOP-92): 41.6 µM (inactive)
GI50 (NCI-H460): > 100 µM (inactive)
GI50 (DLD-1): > 100 µM (inactive)
GI50 (UO-31): > 100 µM (inactive)
GI50 (OVCAR-5): > 100 µM (inactive)
GI50 (SR): > 100 µM (inactive)
GI50 (NCI-H23): > 100 µM (inactive)
GI50 (UACC-257): > 100 µM (inactive)
GI50 (HCC 2998): > 100 µM (inactive)
GI50 (OVCAR-3): > 100 µM (inactive)
GI50 (EKVX): > 100 µM (inactive)
GI50 (786-0): > 100 µM (inactive)
GI50 (LOX IMVI): > 100 µM (inactive)
GI50 (M19-MEL): > 100 µM (inactive)
GI50 (A498): > 100 µM (inactive)
GI50 (SF-539): > 100 µM (inactive)
GI50 (UACC-62): > 100 µM (inactive)
GI50 (CAKI-1): > 100 µM (inactive)
GI50 (IGROV-1): > 100 µM (inactive)
GI50 (RPMI-8226): > 100 µM (inactive)
GI50 (SK-MEL-2): > 100 µM (inactive)
GI50 (XF498): > 100 µM (inactive)
GI50 (SK-OV-3): > 100 µM (inactive)
GI50 (K562): > 100 µM (inactive)
GI50 (HL-60): > 100 µM (inactive)
GI50 (SNB-19): > 100 µM (inactive)
GI50 (SK-MEL-5): > 100 µM (inactive)
GI50 (RXF 631): > 100 µM (inactive)
GI50 (HCT-116): > 100 µM (inactive)
GI50 (U-251): > 100 µM (inactive)
GI50 (OVCAR-4): > 100 µM (inactive)
GI50 (LXFL 529): > 100 µM (inactive)
GI50 (M14): > 100 µM (inactive)
GI50 (TK-10): > 100 µM (inactive)
GI50 (SW-620): > 100 µM (inactive)
GI50 (DMS-114): > 100 µM (inactive)
GI50 (MOLT-4): > 100 µM (inactive)
GI50 (OVCAR-8): > 100 µM (inactive)
GI50 (Malme-3M): > 100 µM (inactive)
GI50 (HOP-62): > 100 µM (inactive)
GI50 (RXF 393): > 100 µM (inactive)
GI50 (HOP-18): > 100 µM (inactive)
GI50 (SF-295): > 100 µM (inactive)
GI50 (HCT-15): > 100 µM
GI50 (NCI-H522): 97.5 µM (inactive)
GI50 (SK-MEL-28): > 100 µM (inactive)
GI50 (A549): > 100 µM (inactive)
GI50 (KM-20L2): > 100 µM (inactive)
GI50 (SF-268): > 100 µM (inactive)
GI50 (SNB-78): > 100 µM (inactive)
GI50 (KM12): > 100 µM (inactive)
GI50 (CCRF-CEM): 48.2 µM (inactive)
GI50 (SN12C): > 100 µM (inactive)
GI50 (HT-29): > 100 µM (inactive)

O=C1NC(=O)C(CCC(=O)c2ccc3ccccc3c2)C(=O)N1
GI50 (NCI-H226): > 100 µM (inactive)
GI50 (COLO 205): > 100 µM (inactive)
GI50 (SNB-75): > 100 µM (inactive)
GI50 (ACHN): > 100 µM (inactive)
GI50 (HOP-92): > 100 µM (inactive)
GI50 (NCI-H460): > 100 µM (inactive)
GI50 (DLD-1): > 100 µM (inactive)
GI50 (UO-31): > 100 µM (inactive)
GI50 (OVCAR-5): > 100 µM (inactive)
GI50 (SR): > 100 µM (inactive)
GI50 (NCI-H23): > 100 µM (inactive)
GI50 (UACC-257): > 100 µM (inactive)
GI50 (HCC 2998): > 100 µM (inactive)
GI50 (OVCAR-3): > 100 µM (inactive)
GI50 (EKVX): > 100 µM (inactive)
GI50 (786-0): > 100 µM (inactive)
GI50 (LOX IMVI): > 100 µM (inactive)
GI50 (M19-MEL): > 100 µM (inactive)
GI50 (A498): > 100 µM (inactive)
GI50 (SF-539): > 100 µM (inactive)
GI50 (UACC-62): > 100 µM (inactive)
GI50 (CAKI-1): > 100 µM (inactive)
GI50 (IGROV-1): > 100 µM (inactive)
GI50 (SK-MEL-2): > 100 µM (inactive)
GI50 (XF498): > 100 µM (inactive)
GI50 (SK-OV-3): > 100 µM (inactive)
GI50 (K562): > 100 µM (inactive)
GI50 (HL-60): > 100 µM (inactive)
GI50 (SNB-19): > 100 µM (inactive)
GI50 (SK-MEL-5): > 100 µM (inactive)
GI50 (RXF 631): > 100 µM (inactive)
GI50 (HCT-116): > 100 µM (inactive)
GI50 (U-251): > 100 µM (inactive)
GI50 (OVCAR-4): > 100 µM (inactive)
GI50 (LXFL 529): > 100 µM (inactive)
GI50 (M14): > 100 µM (inactive)
GI50 (TK-10): > 100 µM (inactive)
GI50 (DMS-273): > 100 µM (inactive)
GI50 (SW-620): > 100 µM (inactive)
GI50 (DMS-114): > 100 µM (inactive)
GI50 (MOLT-4): > 100 µM (inactive)
GI50 (OVCAR-8): > 100 µM (inactive)
GI50 (Malme-3M): > 100 µM (inactive)
GI50 (HOP-62): > 100 µM (inactive)
GI50 (RXF 393): > 100 µM (inactive)
GI50 (HOP-18): > 100 µM (inactive)
GI50 (SF-295): > 100 µM (inactive)
GI50 (HCT-15): > 100 µM
GI50 (NCI-H522): 20.1 µM (inactive)
GI50 (SK-MEL-28): > 100 µM (inactive)
GI50 (A549): > 100 µM (inactive)
GI50 (KM-20L2): > 100 µM (inactive)
GI50 (SF-268): > 100 µM (inactive)
GI50 (SNB-78): > 100 µM (inactive)
GI50 (KM12): > 100 µM (inactive)
GI50 (CCRF-CEM): > 100 µM (inactive)
GI50 (SN12C): > 100 µM (inactive)
GI50 (HT-29): > 100 µM (inactive)
